# Experimental data as given in ChEMBL document CHEMBL1123329, “Aromatase inhibitors. Synthesis and evaluation of mammary tumor inhibiting activity of 3-alkylated 3-(4-aminophenyl)piperidine-2,6-diones” (J Med Chem, 1986).
# Where “and” joins values, the source holds several entries; their conditions need not be identical. Equal entries are not always repeated.
# Tests used:
# Rattus norvegicus [1] = organism: Rattus norvegicus; format: functional; conditions: dose 20 mg/kg
# Rattus norvegicus [2] = organism: Rattus norvegicus; format: functional; conditions: dose 20 mg/kg; remark: listed apart in the source
smiles,measurement,setting,value
C[C@]12CC[C@H]3[C@@H](CCC4=CC(=O)CC[C@@]43C)[C@@H]1CC[C@@H]2O [TESTOSTERONE],Uterine weight effect,Rattus norvegicus [1],23.3 and 29.3 and 34.7
same,Change of tumor area,Rattus norvegicus [2],-37% and -24% and -29%
